Legend:
Type in all cases: physicochemical
[1] = Example 2: solubility of sertaconazole nitrate in solubilizers, macroscopic
Description: Mixtures of 2 wt.-% sertaconazole nitrate and 98 wt.-% of solubilizers were prepared and shaken for 24 h at 150 rpm and at room temperature. Subsequently, the samples were macroscopically examined by evaluating the amount and appearance of the sediment.

[2] = Example 3: solubility of sertaconazole nitrate in mixtures of solvent and solubilizer
Description: Mixtures of 2 wt.-% sertaconazole nitrate and 98 wt.-% of a mixture of solvent and solubilizers (the amount of solubilizer with respect to the total mixture of sertaconazole nitrate, solvent and solubilizer is indicated in the subsequent table) were prepared and shaken for 24 h at 150 rpm and at room temperature. Subsequently, the samples were macroscopically examined by evaluating the amount and appearance of the sediment.

[3] = Example 1: solubility of sertaconazole nitrate in solvents, macroscopic
Description: Mixtures of 2 wt.-% sertaconazole nitrate and 98 wt.-% of solvents were prepared and shaken for 24 h at 150 rpm and at room temperature. Subsequently, the samples were macroscopically examined by evaluating the amount and appearance of the sediment.

**Q.** Which solubility ([1]; 2 wt.-% in 98 wt.-% solubilizer, 24 h, room temperature, trend from dimethylphthalate to macrogol 400) does the source give for `Clc1ccc(C(Cn2ccnc2)OCc2csc3c(Cl)cccc23)c(Cl)c1` (centres unmarked) [sertaconazole nitrate] here?
**A.** The solubility was “Increasing from dimethylphthalate to macrogol 400”.

**Q.** And the appearance ([1]; Dimethylphthalate)?
**A.** The appearance was “Milky mixture with sediment”.

**Q.** And the appearance ([1]; Glycerine (cell below, Marcogol 300, empty, possibly merged))?
**A.** Its appearance is “Clear solution with sediment”.

**Q.** What about the appearance ([1]; Polyglycol M350 (cells below, propylene glycol, transcutol, macrogol 400, empty, possibly merged)) of the same compound?
**A.** Its appearance is “Dissolved”.

**Q.** What about the “amount and appearance of the sediment” value ([2]; Butyl acetate + Macrogol 400 10-30 wt.-%) of the same compound?
**A.** Its value is “Sediment, no change observed by increasing amount of macrogol 400”.

**Q.** And the “amount and appearance of the sediment” value ([2]; Butyl acetate + Polyglycol M350 10-30 wt.-%)?
**A.** Its value is “White powdery sediment, no change observed by increas-ing amount of polyglycol M350”.

**Q.** What about the “amount and appearance of the sediment” value ([2]; Butyl acetate + Propylene glycol 10-30 wt.-%) of the same compound?
**A.** The value was “Clear decrease of sediment with increase of propylene gly-col”.

**Q.** And the “amount and appearance of the sediment” value ([2]; Butyl acetate + Transcutol 10-30 wt.-%)?
**A.** Its value is “Sediment, no change observed by increasing amount of transcutol”.

**Q.** And the “amount and appearance of the sediment” value ([2]; Butyl acetate + Water 10-30 wt.-%)?
**A.** Its value is “Sediment (partially powdery white), increase of sediment with increasing amount of water”.

**Q.** And the “amount and appearance of the sediment” value ([2]; Ethanol + Dimethylphthalate 10-30 wt.-%)?
**A.** Its value is “Sediment (slightly crystalline), minimal decrease of sedi-ment with increasing of amount of dimethylphthalate”.

**Q.** And the “amount and appearance of the sediment” value ([2]; Ethanol + Macrogol 400 10 wt.-%)?
**A.** The value was “Minimal crystal-line sediment”.

**Q.** What about the “amount and appearance of the sediment” value ([2]; Ethanol + Macrogol 400 20 wt.-%) of the same compound?
**A.** Its value is “clear”.

**Q.** What about the “amount and appearance of the sediment” value ([2]; Ethanol + Macrogol 400 30 wt.-%) of the same compound?
**A.** Its value is “clear”.

**Q.** And the “amount and appearance of the sediment” value ([2]; Ethanol + Polyglycol M350 10 wt.-%)?
**A.** Its value is “Minimal crystal-line sediment”.

**Q.** What about the “amount and appearance of the sediment” value ([2]; Ethanol + Polyglycol M350 20 wt.-%) of the same compound?
**A.** Its value is “clear”.

**Q.** And the “amount and appearance of the sediment” value ([2]; Ethanol + Polyglycol M350 30 wt.-%)?
**A.** Its value is “clear”.

**Q.** What about the “amount and appearance of the sediment” value ([2]; Ethanol + Propylene glycol 10-30 wt.-%) of the same compound?
**A.** Its value is “Minimal crystalline sediment, decrease of sediment with increase of amount of propylene glycol”.

**Q.** And the “amount and appearance of the sediment” value ([2]; Ethanol + Transcutol 10-30 wt.-%)?
**A.** Its value is “Minimal crystalline sediment, decrease of sediment with increase of amount of transcutol”.

**Q.** What about the “amount and appearance of the sediment” value ([2]; Ethanol + Water 10-30 wt.-%) of the same compound?
**A.** Its value is “Sediment (powdery/crystalline), no change observed by in-creasing amount of water”.

**Q.** What about the “amount and appearance of the sediment” value ([2]; Ethyl acetate + Dimethylphthalate 10-30 wt.-%) of the same compound?
**A.** Its value is “Crystalline sediment, better solubility than pure ethyl ace-tate”.

**Q.** What about the “amount and appearance of the sediment” value ([2]; Ethyl acetate + Macrogol 400 10-30 wt.-%) of the same compound?
**A.** Its value is “Crystalline sediment, minimal decrease of sediment with increase of amount of macrogol 400”.

**Q.** What about the “amount and appearance of the sediment” value ([2]; Ethyl acetate + Polyglycol M350 10-30 wt.-%) of the same compound?
**A.** Its value is “White, powdery sediment, no change observed by in-crease of amount of polyglycol M350”.

**Q.** What about the “amount and appearance of the sediment” value ([2]; Ethyl acetate + Propylene glycol 10-20 wt.-%) of the same compound?
**A.** Its value is “Decrease of crystalline sediment with increase of amount of propylene gly-col”.

**Q.** What about the “amount and appearance of the sediment” value ([2]; Ethyl acetate + Propylene glycol 30 wt.-%) of the same compound?
**A.** Its value is “Clear”.

**Q.** And the “amount and appearance of the sediment” value ([2]; Ethyl acetate + Transcutol 10-30 wt.-%)?
**A.** Its value is “Powdery/crystalline sediment, no change observed by in-crease of amount of transcutol”.

**Q.** What about the “amount and appearance of the sediment” value ([2]; Ethyl acetate + Water 10-30 wt.-%) of the same compound?
**A.** The value was “Sediment (partially powdery white), increase of sediment with increasing amount of water”.

**Q.** What about the “amount and appearance of the sediment” value ([2]; Isopropanol + Macrogol 400 10-30 wt.-%) of the same compound?
**A.** The value was “Crystalline sediment, no change observed by increasing amount of macrogol 400”.

**Q.** And the “amount and appearance of the sediment” value ([2]; Isopropanol + Polyglycol M350 10-30 wt.-%)?
**A.** The value was “White sediment, clear decrease of sediment with increas-ing amount of polyglycol M350”.

**Q.** What about the “amount and appearance of the sediment” value ([2]; Isopropanol + Propylene glycol 10-30 wt.-%) of the same compound?
**A.** The value was “Crystalline sediment, no change observed by increasing amount of propylene glycol”.

**Q.** And the “amount and appearance of the sediment” value ([2]; Isopropanol + Transcutol 10-30 wt.-%)?
**A.** The value was “Crystalline sediment, no change observed by increasing amount of transcutol”.

**Q.** What about the “amount and appearance of the sediment” value ([2]; Isopropanol + Water 10-30 wt.-%) of the same compound?
**A.** The value was “White powdery sediment, no change observed by increas-ing amount of water”.

**Q.** What about the solubility ([3]; 2 wt.-% in 98 wt.-% solvent, 24 h, room temperature, trend over water, butyl acetate, ethyl acetate, isopropanol, ethanol) of the same compound?
**A.** Its solubility is “Increasing from water to ethanol”.

**Q.** And the appearance ([3]; Ethanol)?
**A.** The appearance was “Low, crystalline sediment”.

**Q.** What about the appearance ([3]; Water) of the same compound?
**A.** The appearance was “Not dissolved, powdery, white sediment”.

**Q.** And the sediment ([3]; trend over water, butyl acetate, ethyl acetate, isopropanol, ethanol)?
**A.** The sediment was “Decreasing from water to etanol”.

Reference: patent EP3861981B1, “NOVEL SERTACONAZOLE COMPOSITIONS” (Dr. Pfleger Arzneimittel GmbH, priority 2020, dated 2021)
